Biological target: T1, Human MTAP (Homo sapiens, UniProt Q13126)
T1 construct: six-histidine tag (His6) (N); made in house; host or cells: E. coli BL21 DE3
T1 sequence (Q13126 1-283): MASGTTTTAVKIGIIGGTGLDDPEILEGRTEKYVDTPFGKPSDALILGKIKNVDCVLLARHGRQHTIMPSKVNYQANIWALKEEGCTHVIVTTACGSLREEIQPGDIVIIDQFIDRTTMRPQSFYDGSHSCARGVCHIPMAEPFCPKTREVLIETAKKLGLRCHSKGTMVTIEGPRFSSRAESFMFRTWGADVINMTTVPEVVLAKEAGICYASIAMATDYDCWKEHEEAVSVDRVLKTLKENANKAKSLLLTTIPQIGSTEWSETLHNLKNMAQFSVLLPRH
Experiment: MTAP substrate assay, coupled spectrophotometric (adenine, xanthine oxidase)
Format: biochemical
Details: 2 nM MTAP; for activity at 50 µM: 10 min, compound 50 uM, relative to MTA at 50 uM, read-out: MT-A—50: initial velocity as a percentage of the initial velocity with MTA as substrate; for MT-A—10: initial velocity as a percentage of the initial velocity with MTA as substrate: compound 10 uM, relative to MTA at 10 uM
Outline: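 Detection was xanthine oxidase-coupled (0.8 units/ml), reading adenine-derived absorbance at 305 nm over 10 min in potassium phosphate/DTT buffer at 37° C, with N-His6 enzyme purified from E. coli.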

Compound | activity at 50 µM [%] | MT-A—10: initial velocity as a percentage of the initial velocity with MTA as substrate [%]
COc1ccc(CSC[C@H]2O[C@@H](n3cnc4c(N)ncnc43)[C@H](O)[C@@H]2O)c(OC)c1 [2(G)(83), (2R, 3R, 4S, 5S)-2-(6-amino-9H-purin-9-yl)-5-{[(2,4-dimethoxybenzyl)-thio]methyl}tetrahydro-furan-3,4-diol] | 8 | 5
Nc1ncnc2c1ncn2[C@@H]1O[C@H](CSc2nc(O)c3cn[nH]c3n2)[C@@H](O)[C@H]1O [2(G)(49), (2R, 3R, 4S, 5S)-2-(6-amino-9H-purin-9-yl)-5-{[(4-hydroxy-1H-pyrazolo[3,4-d]pyrimidin-6-yl)thio]methyl}tetra-hydrofuran-3,4-diol] | 46 | 52
CCc1ccc(SC[C@H]2O[C@@H](n3cnc4c(N)ncnc43)[C@H](O)[C@@H]2O)cc1 [2(G)(80)] | 15 | 13
Nc1ncnc2c1ncn2[C@@H]1O[C@H](CSc2cccc3ccccc23)[C@@H](O)[C@H]1O [2(G)(18), (2R, 3R, 4S, 5S)-2-(6-amino-9H-purin-9-yl)-5-[(1-naphthylthio)methyl]tetrahydrofuran-3,4-diol] | 4 | 5
CCC(C)SC[C@H]1O[C@@H](n2cnc3c(N)ncnc32)[C@H](O)[C@@H]1O (stereo partly drawn) [2(G)(68), (2R, 3R, 4S, 5S)-2-(6-amino-9H-purin-9-yl)-5-[(sec-butylthio)methyl]tetra-hydrofuran-3,4-diol] | 45 | 42
Nc1ncnc2c1ncn2[C@@H]1O[C@H](CSc2nc3ccccc3s2)[C@@H](O)[C@H]1O [2(G)(12), (2R, 3R, 4S, 5S)-2-(6-amino-9H-purin-9-yl)-5-[(1,3-benzothiazol-2-ylthio)methyl]tetrahydro-furan-3,4-diol] | 25 | 24
Nc1ncnc2c1ncn2[C@@H]1O[C@H](CSc2cccc(Br)c2)[C@@H](O)[C@H]1O [2(G)(29), (2R, 3R, 4S, 5S)-2-(6-amino-9H-purin-9-yl)-5-{[(3-bromophenyl)-thio]methyl}tetrahydro-furan-3,4-diol] | 19 | 21
Nc1ncnc2c1ncn2[C@@H]1O[C@H](CSCc2cccc(C(F)(F)F)c2)[C@@H](O)[C@H]1O [2(G)(74)] | 22 | 23
Cc1cc(C)c(C#N)c(SC[C@H]2O[C@@H](n3cnc4c(N)ncnc43)[C@H](O)[C@@H]2O)n1 [2(G)(43), 2-({[(2S, 3S, 4R, 5R)-5-(6-amino-9H-purin-9-yl)-dihydroxytetrahydro-furan-2-yl]methyl}thio)-4,6-dimethylnicotino-nitrile] | 7 | 5
Nc1ncnc2c1ncn2[C@@H]1O[C@H](CSc2ncccn2)[C@@H](O)[C@H]1O [2(G)(8), (2R, 3R, 4S, 5S)-2-(6-amino-9H-purin-9-yl)-5-[(pyrimidin-2-ylthio)methyl]tetrahydro-furan-3,4-diol] | 59 | 54
Nc1ncnc2c1ncn2[C@@H]1O[C@H](CSc2nc[nH]n2)[C@@H](O)[C@H]1O [2(G)(53), (2R, 3R, 4S, 5S)-2-(6-amino-9H-purin-9-yl)-5-[(1H-1,2,4-triazol-3-ylthio)methyl]tetrahydro-furan-3,4-diol] | 57 | 58
Nc1ccc(SC[C@H]2O[C@@H](n3cnc4c(N)ncnc43)[C@H](O)[C@@H]2O)cc1 [2(G)(10), (2R, 3R, 4S, 5S)-2-(6-amino-9H-purin-9-yl)-5-{[(4-aminophenyl)thio]methyl]-tetrahydrofuran-3,4-diol] | 19 | 20
N#Cc1cccnc1SC[C@H]1O[C@@H](n2cnc3c(N)ncnc32)[C@H](O)[C@@H]1O [2(G)(89), 2-({[(2S, 3S, 4R, 5R)-5-(6-amino-9H-purin-9-yl)-3,4-dihydroxytetrahydro-furan-2-yl]methyl}thio)nicotinonitrile] | 5 | 3
Cc1csc(SC[C@H]2O[C@@H](n3cnc4c(N)ncnc43)[C@H](O)[C@@H]2O)n1 [2(G)(79), (2R, 3R, 4S, 5S)-2-(6-amino-9H-purin-9-yl)-5-{[(4-methyl-1,3-thiozol-2-yl)thio]methyl}tetrahydrofuran-3,4-diol] | 45 | 38
Nc1ncnc(SC[C@H]2O[C@@H](n3cnc4c(N)ncnc43)[C@H](O)[C@@H]2O)n1 [2(G)(55), (2R, 3R, 4S, 5S)-2-(6-amino-9H-purin-9-yl)-5-{[(4-amino-1,3,5-triazin-2-yl)thio]methyl}tetra-hydrofuran-3,4-diol] | 47 | 43
Nc1ncnc2c1ncn2[C@@H]1O[C@H](CSc2nc3cc(Cl)ccc3s2)[C@@H](O)[C@H]1O [2(G)(11), (2R, 3R, 4S, 5S)-2-(6-amino-9H-purin-9-yl)-5-{[(5-chloro-1,3-benzothiazol-2-yl)thio]methyl}tetrahydro-furan-3,4-diol] | 25 | 22

The remaining lines, values ahead:

activity at 50 µM [%] | MT-A—10: initial velocity as a percentage of the initial velocity with MTA as substrate [%] | Compound
17 | 19.5 | CSc1nsc(SC[C@H]2O[C@@H](n3cnc4c(N)ncnc43)[C@H](O)[C@@H]2O)n1 [2(G)(152), (2R, 3R, 4S, 5S)-2-(6-amino-9H-purin-9-yl)-5-({[3-(methylthio)-1,2,4-thiodiazol-5-yl)-thio}methyl)tetrahydro-furan-3,4-diol]
6 | 5 | Nc1ncnc2c1ncn2[C@@H]1O[C@H](CSc2ccccc2Cl)[C@@H](O)[C@H]1O [2(G)(96), (2R, 3R, 4S, 5S)-2-(6-amino-9H-purin-9-yl)-5-{((2-chlorophenyl)thio]-methyl}tetrahydrofuran-3,4-diol]
25.5 | 18.5 | Nc1ncnc2c1ncn2[C@@H]1O[C@H](CSc2cccc(F)c2)[C@@H](O)[C@H]1O [2(G)(147), (2R, 3R, 4S, 5S)-2-(6-amino-9H-purin-9-yl)-5-{[(3-fluorophenyl)-thio]methyl}tetrahydro-furan-3,4-diol]
43.5 | 7 | Cc1nc(SC[C@H]2O[C@@H](n3cnc4c(N)ncnc43)[C@H](O)[C@@H]2O)nc(O)c1C [2(G)(158), (2R, 3R, 4S, 5S)-2-(6-amino-9H-purin-9-yl)-5-{[(4-hydroxy-5,6-dimethylpyrimidin-2-yl)-thio]methyl}tetrahydro-furan-3,4-diol]
38 | 36 | Nc1ncnc2c1ncn2[C@@H]1O[C@H](CSc2cccc(O)c2)[C@@H](O)[C@H]1O [2(G)(101), (2R, 3R, 4S, 5S)-2-(6-amino-9H-purin-9-yl)-5-{[(3-hydroxyphenyl)-thio]methyl}tetrahydro-furan-3,4-diol]
58.5 | 56 | Nc1ncnc2c1ncn2[C@@H]1O[C@H](CSCc2ccccc2F)[C@@H](O)[C@H]1O [2(G)(127), (2R, 3R, 4S, 5S)-2-(6-amino-9H-purin-9-yl)-5-{[(2-fluorobenzyl)-thio]methyl}tetrahydro-furan-3,4-diol]
2 | 3.5 | Cc1cc(C)c(CSC[C@H]2O[C@@H](n3cnc4c(N)ncnc43)[C@H](O)[C@@H]2O)c(C)c1 [2(G)(137), (2R, 3R, 4S, 5S)-2-(6-amino-9H-purin-9-yl)-5-{[(mesitylmethyl)thio]-methyl}tetrahydrofuran-3,4-diol]
26.5 | 12 | Nc1ncnc2c1ncn2[C@@H]1O[C@H](CSc2nc3cc(Cl)ccc3o2)[C@@H](O)[C@H]1O [2(G)(163), (2R, 3R, 4S, 5S)-2-(6-amino-9H-purin-9-yl)-5-{[(5-chloro-1,3-benz-oxazol-2-yl)thio]methyl}-tetrahydrofuran-3,4-diol]
28 | 7.5 | NC(=O)CSC[C@H]1O[C@@H](n2cnc3c(N)ncnc32)[C@H](O)[C@@H]1O [2(G)(159), 2-({[(2S, 3S, 4R, 5R)-5-(6-amino-9H-purin-9-yl)-3,4-dihydroxytetrahydro-furan-2-yl)methyl}thio)-acetamide]
15.5 | 32.5 | Nc1ncnc2c1ncn2[C@@H]1O[C@H](CSc2ccccc2CO)[C@@H](O)[C@H]1O [2(G)(157), (2R, 3R, 4S, 5S)-2-(6-amino-9H-purin-9-yl)-5-({[2-(hydroxymethyl)-phenyl]thio}methyl)tetra-hydrofuran-3,4-diol]
2 | 28 | CC(C)c1ccccc1SC[C@H]1O[C@@H](n2cnc3c(N)ncnc32)[C@H](O)[C@@H]1O [2(G)(146), (2R, 3R, 4S, 5S)-2-(6-amino-9H-purin-9-yl)-5-{[(2-isopropylphenyl)-thio]methyl}tetrahydro-furan-3,4-diol]

Reference: patent publication US20040043959A1, “Combination therapies for treating methylthioadenosine phosphorylase deficient cells” (priority 2002, published 2004)
